Experiment [1] can be described thus: Induction of IFN gamma secretion in C57BL/6 mouse spleen cells at 100 ng/ml after 72 hrs relative to OCH. The experiment is classed as functional.
A short description of experiment [2]: Induction of IL4 secretion in C57BL/6 mouse spleen cells at 100 ng/ml after 72 hrs relative to OCH. The experiment is classed as functional.

SMILES strings stand for the structures.

`CCCCCCCCCCCCCCCCCCCCCCC(=O)N[C@@H](CO[C@H]1O[C@H](CO)[C@H](O)[C@H](O)[C@H]1O)[C@H](O)[C@H](O)CCCCC`: the Activity in experiment [1] was 93%; in experiment [2], 103%.
As for `CCCCCCCCCCCCCCCCCCCCCCCC(=O)N[C@@H](CO[C@H]1O[C@H](CO)[C@H](O)[C@H](O)[C@H]1O)[C@H](O)[C@H](O)CCC`, the Activity in experiment [1] is recorded as 96%; in experiment [2], 105%.
Consider `CCCCCCCCCCCCCCCCCCCCCCCCCC(=O)N[C@@H](CO[C@H]1O[C@H](CO)[C@H](O)[C@H](O)[C@H]1O)[C@H](O)[C@H](O)CCCCC`, for which the Activity was determined as 504% in experiment [1] and 129% in experiment [2].
On the same counts, the results for `CCCCCCCCCCCCCCCCCCCCCCCC(=O)N[C@@H](CO[C@H]1O[C@H](CO)[C@H](O)[C@H](O)[C@H]1O)[C@H](O)[C@H](O)CCCC` are 112% and 115%.
Regarding `CCCCCCCCCCCCCCCCCCCCCCCC(=O)N[C@@H](CO[C@H]1O[C@H](CCl)[C@H](O)[C@H](O)[C@H]1O)[C@H](O)[C@H](O)CC1CCCC1`, the Activity is reported as 74% in experiment [1] and 98% in experiment [2].
For `CCCCCCCCCCCCCCCCCCCC(=O)N[C@@H](CO[C@H]1O[C@H](CO)[C@H](O)[C@H](O)[C@H]1O)[C@H](O)[C@H](O)CCCCC`, in that order: 9% and 6%.
Regarding `CCCCCCCCCCCCCCCCCCCCCCCC(=O)N[C@@H](CO[C@H]1O[C@H](CO)[C@H](O)[C@H](O)[C@H]1O)[C@H](O)[C@H](O)CC`, the Activity was found to be 81% in experiment [1] and 102% in experiment [2].
For `CCCCCCCCCCCCCCCCCCCCCCCC(=O)N[C@@H](CO[C@H]1O[C@H](CCl)[C@H](O)[C@H](O)[C@H]1O)[C@H](O)[C@H](O)Cc1ccccc1`, in that order: 284% and 211%.
Consider `CCCCCCCCCCCCCCCCCCCCCCCCCCCC(=O)N[C@@H](CO[C@H]1O[C@H](CO)[C@H](O)[C@H](O)[C@H]1O)[C@H](O)[C@H](O)CCCCC`, for which the Activity in experiment [1] amounted to 761%; in experiment [2], 178%.
Take `CCCCCCCCCCCCCCCCCCCCCC(=O)N[C@@H](CO[C@H]1O[C@H](CO)[C@H](O)[C@H](O)[C@H]1O)[C@H](O)[C@H](O)CCCCC`: the Activity was 46% in experiment [1] and 51% in experiment [2].
As for `CCCCCCCCCCCCCCCCCCCCCCCCC(=O)N[C@@H](CO[C@H]1O[C@H](CO)[C@H](O)[C@H](O)[C@H]1O)[C@H](O)[C@@H](O)CCCCC`, the Activity is 103% in experiment [1] and 154% in experiment [2].
Consider `CCCCCCCCCCCCCCCCCCCCCCCCCC(=O)N[C@@H](CO[C@H]1O[C@H](CO)[C@H](O)[C@H](O)[C@H]1O)[C@H](O)[C@H](O)CCCCCCCCCCCCCC` [RGI-7000], for which the Activity came out at 569% in experiment [1] and 128% in experiment [2].
As to `CCCCCCCCCCCCCCCCCCCCCCCC(=O)N[C@@H](CO[C@H]1O[C@H](CO)[C@H](O)[C@H](O)[C@H]1O)[C@H](O)[C@H](O)CCCCC`, the Activity in experiment [1] and in experiment [2] was 100% in each case.

Values taken from ChEMBL document CHEMBL1147986, “Minimum structure requirement of immunomodulatory glycolipids for predominant Th2 cytokine induction and the discovery of non-linear phytosphingosine analogs” (2007).
